ChEMBL document CHEMBL4130491, “Baicalin and its metabolites suppresses gluconeogenesis through activation of AMPK or AKT in insulin resistant HepG-2 cells” (Eur J Med Chem, 2017)
Active and inactive are the calls of the source. The rule behind the calls is not given here.

Legend:
[1] = target: T1, AMP-activated protein kinase, AMPK (Homo sapiens) (UniProt P54646+O43741+P54619+Q9UGJ0+Q9Y478+Q13131+Q9UGI9); test: Activation of AMPK in palmitate-induced insulin-resistant human HepG2 cells assessed as reduction in G6Pase mRNA expression at 12.5 uM incubated for 24 hrs by real-time PCR method; format: cell-based
[2] = test system: HepG2; test: Cytotoxicity in human HepG2 cells assessed as reduction in cell viability at 3.125 to 50 uM incubated for 24 hrs by MTT assay; format: cell-based; details: hepg2, 24 h
[3] = target: T1, AMP-activated protein kinase, AMPK (Homo sapiens); test: Activation of AMPK in palmitate-induced insulin-resistant human HepG2 cells assessed as reduction in PEPCK mRNA expression at 12.5 uM incubated for 24 hrs by real-time PCR method; format: cell-based
[4] = target: T1, AMP-activated protein kinase, AMPK (Homo sapiens); test: Activation of AMPK in palmitate-induced insulin-resistant human HepG2 cells assessed as increase in AMPK phosphorylation at 12.5 uM incubated for 24 hrs by Western blot method; format: cell-based
[5] = target: T1, AMP-activated protein kinase, AMPK (Homo sapiens); test: Activation of AMPK in palmitate-induced insulin-resistant human HepG2 cells assessed as reduction in PEPCK mRNA expression at 12.5 uM incubated for 24 hrs after 1 hr pre-incubation of cells with 10 uM AMPK inhibitor compound C by real-time PCR method; format: cell-based
[6] = Cytotoxicity in human HepG2 cells assessed as cell viability at 50 uM incubated for 24 hrs by MTT assay; format: cell-based; details: read-out: Activity
[7] = Cytotoxicity in human HepG2 cells assessed as cell viability at 25 uM incubated for 24 hrs by MTT assay; format: cell-based; details: read-out: Activity
[8] = target: T1, AMP-activated protein kinase, AMPK (Homo sapiens); test: Activation of AMPK in palmitate-induced insulin-resistant human HepG2 cells assessed as reduction in GLUT2 mRNA expression at 12.5 uM incubated for 24 hrs by real-time PCR method; format: cell-based
[9] = test system: HepG2; test: Stimulation of glucose consumption in palmitate-induced insulin-resistant human HepG2 cells at 12.5 uM incubated for 24 hrs by glucose oxidase based assay; format: functional, cell-based
[10] = target: T1, AMP-activated protein kinase, AMPK (Homo sapiens); test: Activation of AMPK in palmitate-induced insulin-resistant human HepG2 cells assessed as reduction in GLUT2 mRNA expression at 12.5 uM incubated for 24 hrs after 1 hr pre-incubation of cells with 10 uM AMPK inhibitor compound C by real-time PCR method; format: cell-based
[11] = test system: HepG2; test: Cytotoxicity in palmitate-induced insulin-resistant human HepG2 cells assessed as reduction in cell viability at 12.5 uM incubated for 24 hrs by MTT assay; format: cell-based; details: hepg2, 24 h
[12] = test system: HepG2; test: Stimulation of glucose consumption in palmitate-induced insulin-resistant human HepG2 cells at 12.5 uM incubated for 24 hrs by glucose oxidase based assay relative to palmitate; format: functional
[13] = target: RAC-alpha serine/threonine-protein kinase (Homo sapiens) (UniProt P31749); test: Activation of AKT in palmitate-induced insulin-resistant human HepG2 cells assessed as reduction in PEPCK mRNA expression at 12.5 uM incubated for 24 hrs after 1 hr pre-incubation of cells with 0.5 uM AKT inhibitor […] by real-time PCR method; format: cell-based
[14] = test system: HepG2; test: Cytotoxicity in human HepG2 cells assessed as reduction in cell viability up to 12.5 uM incubated for 24 hrs by MTT assay; format: cell-based; details: hepg2, 24 h
[15] = target: RAC-alpha serine/threonine-protein kinase (Homo sapiens) (UniProt P31749); test: Activation of AKT in palmitate-induced insulin-resistant human HepG2 cells assessed as reduction in PEPCK mRNA expression at 12.5 uM incubated for 24 hrs after 1 hr pre-incubation of cells with 10 uM AMPK inhibitor compound C by real-time PCR method; format: cell-based
[16] = target: RAC-alpha serine/threonine-protein kinase (Homo sapiens) (UniProt P31749); test: Activation of AKT in palmitate-induced insulin-resistant human HepG2 cells assessed as reduction in GLUT2 mRNA expression at 12.5 uM incubated for 24 hrs after 1 hr pre-incubation of cells with 10 uM AMPK inhibitor compound C by real-time PCR method; format: cell-based
[17] = target: RAC-alpha serine/threonine-protein kinase (Homo sapiens) (UniProt P31749); test: Activation of AKT in palmitate-induced insulin-resistant human HepG2 cells assessed as reduction in G6Pase mRNA expression at 12.5 uM incubated for 24 hrs after 1 hr pre-incubation of cells with 0.5 uM AKT inhibitor […] by real-time PCR method; format: cell-based
[18] = target: RAC-alpha serine/threonine-protein kinase (Homo sapiens) (UniProt P31749); test: Activation of AKT in palmitate-induced insulin-resistant human HepG2 cells assessed as increase in AKT phosphorylation at 12.5 uM incubated for 24 hrs by Western blot method; format: cell-based
[19] = target: RAC-alpha serine/threonine-protein kinase (Homo sapiens) (UniProt P31749); test: Activation of AKT in palmitate-induced insulin-resistant human HepG2 cells assessed as reduction in GLUT2 mRNA expression at 12.5 uM incubated for 24 hrs after 1 hr pre-incubation of cells with 0.5 uM AKT inhibitor […] by real-time PCR method; format: cell-based
[20] = target: RAC-alpha serine/threonine-protein kinase (Homo sapiens) (UniProt P31749); test: Activation of AKT in palmitate-induced insulin-resistant human HepG2 cells assessed as reduction in G6Pase mRNA expression at 12.5 uM incubated for 24 hrs after 1 hr pre-incubation of cells with 10 uM AMPK inhibitor compound C by real-time PCR method; format: cell-based
[21] = target: T1, AMP-activated protein kinase, AMPK (Homo sapiens); test: Activation of AMPK in palmitate-induced insulin-resistant human HepG2 cells assessed as reduction in G6Pase mRNA expression at 12.5 uM incubated for 24 hrs after 1 hr pre-incubation of cells with 10 uM AMPK inhibitor compound C by real-time PCR method; format: cell-based

Sequence of RAC-alpha serine/threonine-protein kinase (Homo sapiens) (P31749 whole entry): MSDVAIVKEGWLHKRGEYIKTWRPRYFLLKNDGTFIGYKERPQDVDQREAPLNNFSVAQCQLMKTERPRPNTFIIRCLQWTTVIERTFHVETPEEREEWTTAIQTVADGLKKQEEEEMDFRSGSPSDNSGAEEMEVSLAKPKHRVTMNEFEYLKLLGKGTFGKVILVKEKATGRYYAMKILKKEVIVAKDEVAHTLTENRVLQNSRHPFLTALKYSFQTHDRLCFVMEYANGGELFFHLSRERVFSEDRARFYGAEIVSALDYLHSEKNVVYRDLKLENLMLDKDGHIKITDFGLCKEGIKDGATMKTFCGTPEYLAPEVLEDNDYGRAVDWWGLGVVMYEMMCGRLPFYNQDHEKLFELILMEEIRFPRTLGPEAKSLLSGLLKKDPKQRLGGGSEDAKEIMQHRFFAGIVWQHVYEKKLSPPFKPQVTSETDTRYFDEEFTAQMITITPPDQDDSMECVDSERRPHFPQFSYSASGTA

SMILES | Activity [1] | Activity [3] | Activity [4] | Activity [5] | Activity [8] | Activity [10] | Activity [18] | Activity [19] | Activity [9] | Activity [11] | Activity [14] | also measured
CN(CCOc1ccc(CC2SC(=O)NC2=O)cc1)c1ccccn1 (configuration not stated) [ROSIGLITAZONE] | Active | Active | Active | – | Active | – | – | – | Active | – | – | Activity [12]: 7%
O=C(O)[C@H]1O[C@@H](Oc2cc3oc(-c4ccccc4)cc(=O)c3c(O)c2O[C@@H]2O[C@H](CO)[C@@H](O)[C@H](O)[C@H]2O)[C@H](O)[C@@H](O)[C@@H]1O | Active | Active | Active | – | Active | – | Active | Active | Active | Non-Toxic | Non-Toxic | Activity [13]: inactive; Activity [15]: Active; Activity [16]: Active; Activity [17]: inactive; Activity [20]: Active

Second part, led by results:

Activity [1] | Activity [3] | Activity [4] | Activity [5] | Activity [8] | Activity [10] | Activity [18] | Activity [19] | SMILES | Activity [9] | Activity [11] | Activity [14] | also measured
Active | Active | Active | inactive | Active | inactive | – | – | O=C(O)[C@H]1O[C@@H](Oc2cc3oc(-c4ccccc4)cc(=O)c3c(O)c2O)[C@H](O)[C@@H](O)[C@@H]1O [BAICALIN] | Active | Non-Toxic | – | Activity [2]: Non-Toxic; viability at 24 h, 50 µM [6]: 85%; viability at 24 h, 25 µM [7]: 85%
– | – | – | – | – | – | – | Active | COc1c(O[C@@H]2O[C@H](C(=O)O)[C@@H](O)[C@H](O)[C@H]2O)cc2oc(-c3ccccc3)cc(=O)c2c1O | inactive | Non-Toxic | Non-Toxic | –
Active | Active | Active | inactive | Active | inactive | Active | Active | O=c1cc(-c2ccccc2)oc2cc(O)c(O)c(O)c12 [BAICALEIN] | Active | Non-Toxic | Non-Toxic | Activity [21]: inactive
